# According to US20170157102A1, “USE OF PERHEXILINE” (CONSIGLIO NAZIONALE DELLE RICERCHE, priority 2014, published 2017):
# Where two headings read alike, the source gives them in different places.
# How the values were obtained:
# S. mansoni worms = details: juvenile 4 weeks after infection vs adult 6 or 7 weeks, mice (Pica-Mattoccia et al., 2004); cited from earlier work
# [1] = system: S. mansoni juvenile worms; details: at 8 days; previous report (Livia-Pica et al, 2004); cited from earlier work
# [2] = system: S. mansoni juvenile worms (4 weeks old); assay type: cell-based, Schistosoma mansoni; details: 10 μM overnight, at 5 days
# Protocol: (§1) FIG. 2. Juvenile worms (4 weeks old, S. mansoni) in vitro survival following overnight treatment with 10 μM PHX, 10 μM Gambogic Acid, 10 μM Praziquantel (PZQ) or DMSO (vehicle). Parasites death was assessed by optical examination each day using the following criteria: reduction of motility, tegumental damages and darker appearance. Data shown are the means of results of at least three experiments.
# (§2) Seven-eight male worms or 4-5 worm pairs were recovered under aseptic conditions from infected mice by perfusion of mesenteric veins at 28 days (juvenile) or 56-days post infection (adult pairs) or 2-4 months post-infection (adult males). After washing, the worms were transferred into a 35 mm plates containing 3 mL of DMEM complete worms media and incubated at 37° C. in a humid atmosphere containing 5% CO2 with drugs overnight. Next, the worms were washed 3 times with drug-free medium and were incubated for 5 days at 37° C./5% CO2 and monitored daily under a stereo microscope for mobility, tegumental damage, viability and egg output (worm pairs). The experiment was repeated at least three times.
# Juvenile worms (4 weeks old parasites) were also tested at the same conditions reported above. Following over night incubation of PHX (10 μM), viability of parasites was reduced by 80% after 5 days of observation (FIG. 2). […]
# [3] = system: adult parasites (schistosomes); details: treatment of adult parasites (Redman et al.); cited from earlier work
# S. mansoni adult worms = assay: microbe, parasite or virus in culture; assay type: cell-based, Schistosoma mansoni
# Protocol: as §1, with “1. Adult” for “2. Juvenile”, “(8” for “(4”
# as §2
# Male adult worms (7-8 worms/sample) obtained from infected mice were cultured at 37° C., 5% CO2 in DMEM complete medium (10% FBS) in presence of different concentrations of PHX (3-10 μM) and for variable time (12h to 5 days). For all experiments Gambogic Acid (1-10 μM) and PZQ (1-10 μM) were used as positive controls while DMSO was used as negative control. […] Parasites death was assessed by optical examination each day using the following criteria: reduction of motility, tegumental damages and darker appearance.
# [4] = system: S. mansoni adult worm pairs; assay: Egg production of adult worm pairs in vitro; assay type: cell-based, Schistosoma mansoni; details: 5 μM overnight, vs DMSO control
# Protocol: as §2
# In order to test the effect of PHX on egg production, adult worm pairs were treated overnight using the sub lethal dose of 5 μM. Total number of eggs laid by female parasites was determined 3 and 6 days after the treatment. To do so, the medium containing the eggs was harvested and briefly centrifuged. The pellet containing the eggs was re-suspended in 500 μl of saline solution and the egg number was determined by microscopy analysis.
# S. mansoni = assay: In vivo efficacy in mice infected with S. mansoni (total worm count, hepatic egg burden); details: two weeks after treatment
# Protocol: FIG. 3. Effect of PHX on total worm count (A) and egg burdens (B) in mice infected with S. mansoni. One-way analysis of variance (one-way Anova) was used to compare means of the samples. The p-values are indicated. PZQ (Praziquantel, oral administration, 500 mg/kg), PERHEX LOW (PHX, oral administration, 23 mg/kg), PERHEX HIGH (PHX, oral administration, 70 mg/kg).
# Female ICR (CD-1) outbred and C57BL/6, 4-7 weeks old mice (Harlan Laboratories) were housed under controlled conditions [(22±2)° C.; (65±15)% relative humidity; 12/12 h light/dark cycle]. The mice received standard food and water ad libitum. Female ICR (CD-1) outbred mice were infected transcutaneously with approximately 80 (for mixed infection) or 200 (single sex) S. mansoni cercariae for life cycle maintainance and in vitro worm assays. For in vivo experiments, C57BL/6 mice were infected with 140 cercariae and administered with selected compounds.
# C57B/L6 inbred female mice (5-6 weeks old) were divided in 4 groups of 7 animals each and treated with DMSO (control), PZQ or two dosages of PHX. All compounds were administered orally (vehicle is 2.5% Cremophor EL) 42 days post infection. The amount of PHX administered (23 mg/kg and 70 mg/kg) was guided by available information of therapeutic dose in use for angina treatment (Ashrafian H., 2007); PZQ was used at the standard dose (500 mg/Kg). Toxicity of compounds (e.g., death and behavioral changes) was assessed daily during and after treatment until the time of euthanasia. At 56 days post infection, mice were euthanized with an intraperitoneal injection of Tiletamina/Zolazepam ([…])+Xylazina (100 mg/kg) and adult worms perfused as described above.
# Compound efficacy in vivo, measured using a number of criteria, was compared to that of the anti-schistosomal drug, PZQ. The criteria include the numbers of male and female worms (total worm count) recovered by perfusion and hepatic egg burden (number of eggs in the liver). To recover eggs trapped in liver, whole livers from individual mice were excised, weighed and incubated in a 4% KOH solution over night at 37° C. Eggs were counted under a dissecting microscope as previously described (Cheever, A. W., 1968).
# Based on the strong in vitro effects of PHX against larvae, juvenile (4 weeks old) and adult worms, the in vivo efficacy of the drug was tested in mice infected with S. mansoni. Based on the previous cardiovascular studies of the drug (Ashrafian H., 2007), two different concentrations of PHX were used: a low dose (23 mg/Kg) and a high dose (70 mg/Kg). […] Two weeks after the treatment, mice were sacrificed and the total worm count and egg burden (number of eggs in the liver) were determined (FIG. 3). […]
# [5] = system: S. mansoni newly transformed schistosomula; assay: CellTiterGlo luminescent viability assay on schistosomula; details: 24 h; for CC50: values of two independent experiments
# Protocol: Cercariae, shed from infected snails, were subsequently converted to schistosomula by mechanical transformation using an optimised version of the protocol of Brink et al., 1977 previously described (Protasio et al. 2013). Briefly, the cercarial suspension (approximately 50.000 cercariae) was placed in a glass 40 ml tube on ice for 60 minutes in order to reduce parasite motility. Tail detachment was obtained by shaking cercariae vigorously for approximately 30 seconds in a vortex mixer before passing these through a 22G syringe needle approximately 10-12 times. Next, the separation of heads/schistosomula and tails was obtained by placing the heads plus tails suspension on 4-5 ml of ice-cold 70% Percoll in tube and centrifugating (600×g) for 10 minutes at 4° C. Finally, the schistomula preparations were washed twice (with DMEM complete media lacking FBS) and microscope examination was used to assess the quantity and quality of purified schistosomula (less than 1% tails). Schistosomula were cultured at 37° C. in 6 wells tissue culture plates containing 3 ml schistosomula complete media in an atmosphere of 5% CO2 for 24 hr before any further experimental manipulations proceeded. Negligible parasite death occurred in this media during the 24 hr culturing period. Following this, schistosomula were aliquoted into flat-bottom 384-well black-sided for compound assays.
# Compounds are stored as solution of 100% DMSO at −20 ° C. under inert atmosphere. Intermediate storage microplates, in the 384 well/plate format, are prepared on demand and stored in the same controlled environment as the stock solutions. Intermediate microplate stored compounds are transferred to assay plates by the acoustic droplet ejection technology (ATS-100, EDC Biosystems USA) which ensures a safe, contactless, pre-dilution free delivery. The test set was transferred to 384 well, black, tissue culture treated destination plate. […]
# The plate set was let to incubate with the compounds at 37° C./5% CO2 for 24 hours. […] The readout, luminescence based, was carried out by a CCD based detector (ViewLux, PerkinElmer USA). […]
# [6] = cited from earlier work
# [7] = HIGH dose 70 mg/Kg oral single dose
# [8] = LOW dose 23 mg/Kg oral single dose
smiles,measurement,setting,value
O=C(C1CCCCC1)N1CC(=O)N2CCc3ccccc3C2C1 (stereo not shown) [Praziquantel],ED50 against juvenile worms relative to adult worms,S. mansoni worms,at least 30 times
same,survival of juvenile worms,[1],approximately 80%
same,survival rate of juvenile worms,[2],50%
Cl.N [NH4Cl],rate of BODIPY FL C5-sphyngomyelin breakdown,[3],no decrease
"C1CCC(C(CC2CCCCN2)C2CCCCC2)CC1 (stereo not shown) [Perhexiline, 2-(2,2-dicyclohexylethyl)piperidine]",effect on viability of adult worms,S. mansoni adult worms; 3 μM,no effect
same,inhibition at 5 µM,"S. mansoni adult worms; Schistosoma mansoni, read-out: reduced viability of adult worms",~50%
same,viability of adult parasites,"S. mansoni adult worms; overnight incubation 10 μM, after 5 days",statistically significant decreased viability
same,reduction in egg production,[4]; 3 days after treatment,around 60%
same,reduction in egg production,[4]; 6 days after treatment,around 60%
same,decrease in total worm counts,S. mansoni; [7],63%
same,reduction of egg burden (number of eggs in the liver),S. mansoni; [7],60%
same,decrease in total worm counts,S. mansoni; [8],35%
same,reduction of egg burden (number of eggs in the liver),S. mansoni; [8],50%
same,CC50,"[5]; Schistosoma mansoni, read-out: CC50 of newly transformed schistosomula, 24 h, 0.019-50 μM, four parameter fit",9.56 µM
same,CC50,"[5]; read-out: CC50 of newly transformed schistosomula, 0.019-50 μM, four parameter fit",12.4 µM
same,cytotoxicity in the initial screen,"[5]; single concentration 10 μM, threshold 70% cytotoxicity, scaled DMSO 0% / gambogic acid 100%",positive compound
same,rate of BODIPY FL C5-sphyngomyelin breakdown,[3],no decrease
same,inter-individual differences in apparent oral clearance,[6]; CYP2D6 polymorphisms,approximately 100 fold
same,plasma half-life,[6]; most subjects,24 to 48 h
same,plasma half-life,[6]; poor metabolizers (CYP2D6),up to 40 days
same,defined therapeutic range of plasma concentration,[6]; range that avoids hepatotoxicity and peripheral neuropathy (Horowitz et al 1986),0.15-0.6 mg 1^−1
CNCCCN1c2ccccc2CCc2ccccc21 [desipramine],rate of BODIPY FL C5-sphyngomyelin breakdown,[3],no decrease
